Results as given in US20100331297A1, “MODULATION OF PROTEIN TRAFFICKING” (FOLDRX PHARMACEUTICALS, INC., priority 2007, published 2010).
pEC50: −log10 of the molar value.

What was measured:
[1] = target: T1, ΔF508 CFTR (Homo sapiens, UniProt P13569, DEL508-508); test: Corrector activity, YFP halide (iodide) quenching assay in FRT cells expressing ΔF508 CFTR; format: cell-based; set-up: expressed in transfected cells; host or cells: Fischer rat thyroid (FRT) cells; settings: FRT cells ΔF508 CFTR/YFP, 24 hours with compound at 37° C., forskolin and genistein; read-out: Corrector EC50
Procedure: Fisher rat thyroid (FRT) cells stably expressing ΔF508 CFTR and a halide-sensitive variant of yellow fluorescent protein (YFP) were seeded into microtiter plates and allowed to grow for 24 hours at 37° C. and 5% CO2. See Pedemonte et al., J. Clin. Invest. […] Compounds in dimethylsulfoxide (DMSO) solution were pre-diluted into cell culture medium, the medium was removed from cells, and then fresh medium containing the compounds was applied. The cells were incubated for a further 24 hours at 37° C. and 5% CO2.
Activity of CFTR was assayed by removing the medium, washing the cell monolayer with phosphate-buffered saline solution (PBS), and then applying PBS containing forskolin and genistein. After 30 min incubation at 37° C., the plates were placed in a fluorescence plate reader equipped with a reagent injector.
Corrector activity was calculated as follows. Normalized endpoint fluorescence was calculated by dividing the endpoint fluorescence after iodide injection by the initial fluorescence reading and multiplication by 100. Corrector EC50 values were calculated from the activity vs. concentration data using a 4-parameter log fit. The bottom of the curve was constrained to zero activity (DMSO control) while the slope, EC50, and top of the curve were fitted to the data. The EC50 was determined as the concentration that corresponds to the inflection point of the fitted curve.

[2] = target: T1, ΔF508 CFTR; test: Potentiator activity, YFP halide (iodide) quenching assay in FRT cells expressing ΔF508 CFTR, 27° C. pre-incubation; format: cell-based; set-up: expressed in transfected cells; host or cells: Fischer rat thyroid (FRT) cells; settings: FRT cells ΔF508 CFTR/YFP, 24 hours at 27° C., compound with forskolin 30 min
Procedure: Fisher rat thyroid (FRT) cells stably expressing ΔF508 CFTR and a halide-sensitive variant of yellow fluorescent protein (YFP) were seeded into microtiter plates and allowed to grow for 24 hours at 37° C. and 5% CO2, as described above. The medium was replaced with fresh medium and the cells were incubated for a further 24 hours at 27° C. and 5% CO2 to increase the level of mutant CFTR at the cell surface.
Compounds in DMSO solution were pre-diluted into phosphate-buffered saline solution (PBS) containing forskolin. Activity of CFTR was assayed by removing the medium, washing the cell monolayer with PBS, and then applying the compounds diluted in PBS containing forskolin. After 30 min of incubation at 37° C., the plates were placed in a fluorescence plate reader equipped with a reagent injector. After measuring an initial fluorescence value, iodide-containing buffer was injected and the decrease in fluorescence was followed at excitation and emission wavelengths of 485 and 530 nm, respectively.
Potentiator activity was calculated as follows. Normalized endpoint fluorescence was calculated by dividing the endpoint fluorescence after iodide injection by the initial fluorescence reading and multiplication by 100. Potentiator EC50 values were calculated by the same method as corrector EC50 values.

T1 sequence (P13569 with tags, fused parts or gaps DEL508-508): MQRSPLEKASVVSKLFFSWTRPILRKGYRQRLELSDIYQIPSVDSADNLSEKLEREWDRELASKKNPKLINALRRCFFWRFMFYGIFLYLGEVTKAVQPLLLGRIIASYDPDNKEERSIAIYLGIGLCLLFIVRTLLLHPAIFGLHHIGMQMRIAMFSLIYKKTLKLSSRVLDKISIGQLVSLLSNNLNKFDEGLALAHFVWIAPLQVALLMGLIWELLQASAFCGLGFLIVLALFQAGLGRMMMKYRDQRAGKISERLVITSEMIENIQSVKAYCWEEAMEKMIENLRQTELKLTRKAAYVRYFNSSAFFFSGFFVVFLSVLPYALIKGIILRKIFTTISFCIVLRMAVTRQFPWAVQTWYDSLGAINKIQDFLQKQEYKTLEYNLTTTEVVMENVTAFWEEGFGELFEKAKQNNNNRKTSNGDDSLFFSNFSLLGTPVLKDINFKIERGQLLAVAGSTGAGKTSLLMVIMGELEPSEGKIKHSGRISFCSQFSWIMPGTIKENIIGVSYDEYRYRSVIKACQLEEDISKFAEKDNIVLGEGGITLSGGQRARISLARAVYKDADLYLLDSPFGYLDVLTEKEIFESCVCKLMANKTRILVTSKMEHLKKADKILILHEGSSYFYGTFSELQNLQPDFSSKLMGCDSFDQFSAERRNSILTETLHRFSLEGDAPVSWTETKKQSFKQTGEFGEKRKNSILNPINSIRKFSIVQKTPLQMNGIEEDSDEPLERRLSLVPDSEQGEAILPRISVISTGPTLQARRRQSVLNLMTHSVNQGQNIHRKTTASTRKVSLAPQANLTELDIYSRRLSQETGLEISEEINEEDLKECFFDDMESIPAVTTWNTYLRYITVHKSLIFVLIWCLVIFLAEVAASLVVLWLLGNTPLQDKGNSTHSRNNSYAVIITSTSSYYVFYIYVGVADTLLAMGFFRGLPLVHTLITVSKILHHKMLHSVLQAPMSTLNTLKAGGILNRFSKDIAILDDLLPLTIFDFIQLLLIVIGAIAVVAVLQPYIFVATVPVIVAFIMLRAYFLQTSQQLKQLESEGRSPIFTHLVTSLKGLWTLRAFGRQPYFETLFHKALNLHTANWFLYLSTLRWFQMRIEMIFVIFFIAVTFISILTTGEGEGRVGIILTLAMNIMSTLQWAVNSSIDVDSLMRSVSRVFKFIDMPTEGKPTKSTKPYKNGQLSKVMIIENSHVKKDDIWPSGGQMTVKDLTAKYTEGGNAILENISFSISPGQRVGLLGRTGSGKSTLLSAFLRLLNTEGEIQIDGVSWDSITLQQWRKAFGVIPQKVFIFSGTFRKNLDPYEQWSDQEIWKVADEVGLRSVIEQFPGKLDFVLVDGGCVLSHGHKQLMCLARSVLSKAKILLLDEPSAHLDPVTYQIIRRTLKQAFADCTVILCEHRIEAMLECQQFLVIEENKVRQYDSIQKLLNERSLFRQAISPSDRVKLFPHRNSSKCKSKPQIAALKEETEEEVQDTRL

pEC50 [1]	pEC50 [2]	SMILES
5.00 to 5.30	< 4.82	CCn1nc(Nc2cccc3ccccc23)c2c(N)ncnc21 [compound 308]
< 4.82	> 5.70	CC(C)(C)n1nc(Oc2ccc(Cl)cc2)c2c(N)ncnc21 [compound 168]
< 4.82	> 5.70	Nc1ncnc2c1c(Oc1cccc(Cl)c1)nn2CC1CCC1 [compound 256]
< 4.82	> 5.70	CCn1nc(Sc2cccc3ccccc23)c2c(N)ncnc21 [compound 207]
> 5.70	< 4.82	CC(=O)N1CCC(n2nc(-c3ccc(Cl)cc3)c3c(N)ncnc32)CC1 [compound 302]
< 4.82	< 4.82	O=[N+]([O-])c1ccc(Nc2ncnc3[nH]nc(-c4ccc(Cl)cc4)c23)nc1 [compound 293]
< 4.82	> 5.70	CCn1nc(Sc2ccc(Cl)cc2)c2c(N)ncnc21 [compound 216]
< 4.82	5.00 to 5.30	CC(C)(C)n1nc(S(=O)(=O)c2ccccc2)c2c(N)ncnc21 [compound 191, 3-Benzenesulfonyl-1-tert-butyl-1H-pyrazolo[3,4-d]pyrimidin-4-ylamine]
< 4.82	< 4.82	CC(=O)N1CC(n2nc(-c3ccc(Cl)cc3)c3c(N)ncnc32)C1 [Compound No. 295, 1-{3-[4-Amino-3-(4-chloro-phenyl)-pyrazolo[3,4-d]pyrimidin-1-yl]-azetidin-1-yl}-ethanone]
< 4.82	> 5.70	Cc1ccc(Oc2nn(C(C)(C)C)c3ncnc(N)c23)cc1C [compound 177]
5.00 to 5.30	< 4.82	CCn1nc(-c2ccc(N=[N+]=[N-])cc2)c2c(N)ncnc21 [compound 170]
< 4.82	< 4.82	CCn1nc([S+]([O-])c2cccc(F)c2)c2c(N)ncnc21 (stereo not drawn) [compound 238]
< 4.82	> 5.70	Cc1ccccc1Oc1nn(C(C)(C)C)c2ncnc(N)c12 [compound 185]
5.30 to 5.70		CCn1c(C)c(-c2ccc(Cl)cc2)c2c(N)ncnc21 [compound 401]
< 4.82		CC(C)(C)OC(=O)N1CCC(n2nc(Oc3ccccc3)c3c(N)ncnc32)CC1 [compound 362]
< 4.82		CN1CC(n2nc(Sc3ccccc3)c3c(N)ncnc32)C1 [compound 383]
< 4.82		CC(C)N1CC(n2nc(Sc3ccccc3)c3c(N)ncnc32)C1 [compound 384]
5.00 to 5.30		CC(C)(C)n1cc(-c2cccc(Cl)c2)c2c(NC(=O)C3CCCC3)ncnc21 [compound 367]

Continued, molecule first:

SMILES	pEC50 [1]	pEC50 [2]
CC(C)(C)n1nc(-c2ccc3c(c2)OCO3)c2c(N)ncnc21 [compound 131]	< 4.82	5.30 to 5.70
CC(C)(C)OC(=O)n1nc(Sc2cccc(Cl)c2)c2c(N)ncnc21 [compound 343]	< 4.82	> 5.70
CCn1nc(Sc2ccccn2)c2c(N)ncnc21 [compound 324]	< 4.82	< 4.82
Cc1cc(Oc2nn(C(C)(C)C)c3ncnc(N)c23)ccc1F [compound 179]	< 4.82	> 5.70
Nc1ncnc2c1c(Oc1cccc(Cl)c1)nn2CC1CC1 [compound 278]	< 4.82	> 5.70
Nc1ncnc2c1c(-c1ccc(Cl)cc1)cn2Cc1ccccc1 [compound 327]	< 4.82	> 5.70
CC(C)(C)n1nc(Oc2ccc3c(c2)CCC3)c2c(N)ncnc21 [compound 210]	5.00 to 5.30	> 5.70
CC(C)(C)n1nc(Oc2ccc(OCc3ccccc3)cc2)c2c(N)ncnc21 [compound 233]	< 4.82	< 4.82
CCNC(=O)N1CC(n2nc(-c3ccc(Cl)cc3)c3c(N)ncnc32)C1 [Compound No. 275, 3-[4-Amino-3-(4-chloro-phenyl)-pyrazolo[3,4-d]pyrimidin-1-yl]azetidine-1-carboxylic acid ethylamide]	< 4.82	< 4.82
CCn1nc(Sc2cccc(Br)c2)c2c(N)ncnc21 [compound 236]	< 4.82	> 5.70
Nc1ncnc2c1c(-c1ccc(Cl)cc1)nn2C1CCCC1 [compound 247]	5.30 to 5.70	5.30 to 5.70
CCn1nc([S+]([O-])c2cccc(O)c2)c2c(N)ncnc21 (stereo not drawn) [compound 285]	< 4.82	< 4.82
CCn1nc([S+]([O-])c2cccc(C)c2)c2c(N)ncnc21 (stereo not drawn) [compound 224]	< 4.82	< 4.82
Nc1ncnc2c1c(-c1ccc(Cl)cc1)nn2C1CNC1 [compound 411]	< 4.82	< 4.82
Nc1ncnc2c1c(-c1ccc(Cl)cc1)cn2CC(O)CF (stereo not drawn) [compound 309]	5.30 to 5.70	< 4.82
Cc1cc(C)cc(Oc2nn(C(C)(C)C)c3ncnc(N)c23)c1 [compound 180]	5.00 to 5.30	> 5.70
CC(C)(C)n1nc([S+]([O-])c2ccccc2)c2c(N)ncnc21 (stereo not drawn) [compound 173, 3-benzenesulfinyl-1-tert-butyl-1H-pyrazolo[3,4-d]pyrimidin-4-ylamine]	< 4.82	< 4.82
CCn1nc([S+]([O-])c2ccc(F)cc2F)c2c(N)ncnc21 (stereo not drawn) [compound 292]	< 4.82	< 4.82

SMILES	pEC50 [1]	pEC50 [2]
CC(C)(C)n1nc(-c2ccc(O)cc2Cl)c2c(N)ncnc21 [compound 276]	5.00 to 5.30	> 5.70
CCn1cc(-c2ccc(Cl)cc2)c2c(NC(=O)c3ccc(F)cc3)ncnc21 [compound 299]	> 5.70	< 4.82
CC(C)(C)n1cc(-c2ccc(Cl)cc2)c2c(N)ncnc21 [Compound No. 261, 7-tert-Butyl-5-(4-chloro-phenyl)-7H-pyrrolo[2,3-d]pyrimidin-4-ylamine]	> 5.70	> 5.70
Nc1ncnc2c1c(-c1ccc(Cl)cc1)cn2CC(F)F [compound 290]	> 5.70	5.30 to 5.70
CC(C)(C)n1nc(Oc2cccc3c2CCCC3)c2c(N)ncnc21 [compound 209]	< 4.82	< 4.82
CCn1nc(Nc2ccc3c(c2)OC(F)(F)O3)c2c(N)ncnc21 [compound 313]	< 4.82	5.30 to 5.70
CC(C)(C)n1nc(Oc2cccc(Cl)c2)c2c(NC(=O)c3ccccc3)ncnc21 [Compound No. 332, N-[1-tert-Butyl-3-(3-chloro-phenoxy)-1H-pyrazolo[3,4-d]pyrimidin-4-yl]-benzamide]	< 4.82	> 5.70
CCn1cc(-c2ccc(Cl)cc2)c2c(NS(C)(=O)=O)ncnc21 [Compound No. 305, N-[5-(4-Chloro-phenyl)-7-ethyl-7H-pyrrolo[2,3-d]pyrimidin-4-yl]-methanesulfonamide]	< 4.82	< 4.82
CC(C)C(=O)Nc1ncnc2c1c(-c1ccc(Cl)cc1)nn2C(C)(C)C [compound 265]	5.00 to 5.30	> 5.70
CCOC(=O)N1CCC(n2nc(-c3ccc(Cl)cc3)c3c(N)ncnc32)CC1 [compound 303]	< 4.82	< 4.82
Nc1ncnc2c1c(-c1ccc(Cl)cc1)cn2CC1CC1 [Compound No. 242, 5-(4-Chloro-phenyl)-7-cyclopropylmethyl-7H-pyrrolo[2,3-d]pyrimidin-4-ylamine]	> 5.70	5.30 to 5.70
Nc1ncnc2c1c(-c1ccc(Cl)cc1)cn2C1CCC1 [compound 257]	> 5.70	> 5.70
CC(C)(C)n1nc(O)c2c(N)ncnc21 [compound 325, 4-amino-1-tert-butyl-1H-pyrazolo[3,4-d]pyrimidin-3-ol]	< 4.82	< 4.82
CC(=O)N1CC(n2cc(Cc3cccc4ccccc34)c3c(N)ncnc32)C1 [compound 306]	< 4.82	< 4.82
Nc1ncnc2c1c(-c1ccc(Cl)cc1)nn2-c1ncccn1 [compound 251]	< 4.82	
CC(C)(C)n1cc(-c2ccc(Cl)cc2)c2c(NC(=O)C3CCC3)ncnc21 [compound 391]	5.30 to 5.70	
CC(C)C(=O)N(C(=O)C(C)C)c1ncnc2c1c(Br)nn2C(C)(C)C [compound 426]	5.00 to 5.30	
CC(C)C(=O)Nc1ncnc2c1c(-c1ccc(Cl)cc1)cn2C(C)(C)C [compound 366]	< 4.82	
